The source of these data is ChEMBL document CHEMBL4219094, “Synthesis and evaluation of substituted 4-arylimino-3-hydroxybutanoic acids as potential HIV-1 integrase inhibitors” (Bioorg Med Chem Lett, 2018).

As usually defined, the IC50 is the concentration that inhibits the measured activity by half. Broadly, the CC50 is the concentration at which the toxic effect on the cells reaches its halfway point. A low value points to harm at low concentration.

Where only a bound is given, the exact number is not on record here.

Data set [1] deals with Human immunodeficiency virus type 1 integrase (Human immunodeficiency virus 1, UniProt Q7ZJM1). Put plainly: Inhibition of HIV-1 subtype C integrase in presence of biotinylated DNA by colorimetric analysis.
Data set [2] can be described thus: Cytotoxicity against HEK293 cells after 48 hrs by resazurin dye-based fluorescence assay. Particulars: human. In kind it is cell-based. On the technique in general: Alamar Blue is a resazurin reagent that responds to reducing activity.
In data set [3] the test system is HEK293. Put plainly: Cytotoxicity against HEK293 cells at 100 uM after 48 hrs by resorufin dye-based fluorescence assay relative to control. The data set is classed as cell-based. Particulars: human, hek293, 48 h.

Sequence of Human immunodeficiency virus type 1 integrase (Q7ZJM1 whole entry): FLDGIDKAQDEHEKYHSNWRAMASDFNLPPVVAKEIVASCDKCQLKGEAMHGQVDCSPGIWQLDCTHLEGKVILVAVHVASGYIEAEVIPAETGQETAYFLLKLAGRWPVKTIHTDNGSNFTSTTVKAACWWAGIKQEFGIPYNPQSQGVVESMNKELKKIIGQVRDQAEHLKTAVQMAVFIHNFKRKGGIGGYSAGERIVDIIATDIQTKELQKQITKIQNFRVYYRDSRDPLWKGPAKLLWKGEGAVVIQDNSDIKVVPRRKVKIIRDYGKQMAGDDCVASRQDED

As to `O=C(O)CC(O)/C=N/c1cc(Cl)cc(Cl)c1O` (configuration not stated), the IC50 in data set [1] was greater than 100 µM. The CC50 at 48 h in data set [2] was found to be 101 µM.
Consider `O=C(O)CC(O)/C=N/c1ccc(O)c(O)c1` (configuration not stated), for which the Activity result in data set [3] is reported as “Non-Toxic”. Also, the IC50 in data set [1] amounted to 38.7 µM.
On to `O=C(O)CC(O)/C=N/c1cc(Cl)cc(Br)c1O` (configuration not stated), for which the IC50 in data set [1] is greater than 100 µM. For the same compound, the CC50 at 48 h in data set [2] is 109 µM.
In the case of `O=C(O)CC(O)/C=N/c1ccccc1O` (configuration not stated), the Activity result in data set [3] is “Non-Toxic”. Also, the IC50 in data set [1] was greater than 100 µM.
The corresponding values for `O=C(O)CC(O)/C=N/c1ccc(O)c(O)c1O` (configuration not stated) are “Non-Toxic” and 3.52 µM.
The corresponding values for `O=C(O)CC(O)/C=N/c1cc([N+](=O)[O-])ccc1O` (configuration not stated) are “Non-Toxic” and 65.1 µM.
For the compound `O=C(O)CC(O)/C=N/c1cccc(O)c1O` (configuration not stated), the Activity result in data set [3] is on record as “Non-Toxic”. Moreover, the IC50 in data set [1] worked out at 53.2 µM.
Regarding `O=C(O)CC(O)/C=N/c1cc(Br)cc(Br)c1O` (configuration not stated), the IC50 in data set [1] worked out at 26.4 µM. In addition, half-maximal cytotoxicity in data set [2] (CC50 at 48 h) was put at 104 µM.
Turning to `CC[C@H]1CN2CCc3cc(OC)c(OC)cc3[C@@H]2C[C@@H]1C[C@H]1NCCc2cc(OC)c(OC)cc21` [EMETINE], the CC50 at 48 h in data set [2] is 0.071 µM.
